± gives the expanded uncertainty stated by the source.
Conditions: Liquid; for mass density: 298.15 K, 101.33 kPa, Vibrating tube method; for Normal boiling temperature: Ebulliometric method (Recirculating still)

| Structure (SMILES) | mass density | Normal boiling temperature |
| --- | --- | --- |
| CC12CCC(CC1)C(C)(C)O2 [1,3,3-trimethyl-2-oxabicyclo[2.2.2]octane] | 920.68 ± 0.12 kg/m3 | 176.1 ± 0.4 °C |
| CCO [ethanol] | 785.27 ± 0.15 kg/m3 | 78.2 ± 0.4 °C |
